Laboratory results taken from ChEMBL document CHEMBL3430912, “GSK Tres Cantos Anti-Kinetoplastid Screening (TCAKS) Data”.

Tests used:
[1] = GSK_TCAKS: pIC50 HepG2 human cell line viability assay using luminiscence. […] Seeding density was checked to ensure that new mono-layers were not more than 50% confluent at the time of harvesting. Cell suspension was added to 500 mL of the same medium at a final density of 1.2 * 10^5 cells/mL. This cell suspension was dispensed (25 uL, 3000 cells per well) into 384-well clear-bottom plates using a Multidrop Combi dispenser. Prior to addition of the cell suspension, the screening compounds (250 nL) were pre-dispensed into the plates with an Echo liquid handler. Plates were incubated for 48 h at 37C, 5% CO2. After incubation, plates equilibrated at room temperature for 30 min before proceeding to develop the luminescent signal. The signal developer, CellTiter-Glo Reagent, was allowed to equilibrate at room temperature for 30 min and added to the plates (25uL per well) using a Multidrop Combi dispenser. Plates were left for 10 min at room temperature for stabilization and then read using a ViewLux.; type: toxicity, cell-based
Trypanosoma cruzi [2] = test: (§1) GSK_TCAKS: pIC50 Trypanosoma cruzi Imaging: Infected Cells. […] Cells were then washed once with PBS before infection. T. cruzi trypomastigotes, collected at days 5 to 8 after infection from LLC-MK2 parasite infected cultures, were allowed to swim out for 4h at 37C from a centrifuged pellet (2,500 rpm/10 min/room temperature). Trypomastigotes were then collected and counted in a CASY Cell Counter. Trypomastigotes, in supplemented DMEM, were added to H9c2 cultures in a multiplicity of infection of 1 and incubated for 18 h. Cells were washed once with PBS before incubation of the infected H9c2 monolayer with trypsin (Life-Technologies) to detach cells from the flask. Cells were counted in a CASY Cell Counter using a 150 um capillary and their density set at 5 * 10^4 cells per mL in supplemented assay DMEM. Infected H9c2 were dispensed into 384-well poly-lysine coated assay plates at 50uL per well using a Multidrop Combi dispenser. After seeding them, the plates were incubated at 37C, 5% CO2 for 72h. Cultures were then fixed and stained by addition of 50 uL of a solution containing 8% formaldehyde and 4 uM DRAQ5 DNA dye (BioStatus, UK) per well. […] Five images were collected per well for reliable statistical analysis. Automated image analysis was performed with a script developed on Acapella High Content Imaging and Analysis Software (PerkinElmer). Output: percentage of infected cells per well as a second infection marker.; type: functional, organism-based, Rattus norvegicus; conditions: H9c2, 4 h
Leishmania donovani [3] = test: (§2) GSK_TCAKS: pIC50 Leishmania donovani Imaging: THP-1 Host Macrophages. Assay plates (384-well) were prepared by adding 250nL of compound to each well. For single shot assay, the final compound concentration was 5 uM. […] Automated image analysis was performed with a script developed on Acapella High Content Imaging and Analysis Software (PerkinElmer). Output: THP-1 cell count were reported for each well.; type: functional, organism-based, Homo sapiens
Leishmania donovani [4] = test: as §2, with “Amastigotes/Macrophages.” for “THP-1 Host Macrophages.”, “Average number of amastigotes per macrophage” for “THP-1”, “cell” for “cell count”; type: functional, organism-based, Homo sapiens; conditions: THP-1
Leishmania donovani [5] = test: GSK_TCAKS: pIC50 Leishmania donovani viability assay using fluorescence intensity. Assay plates (1536-well) were prepared by adding 30nL per well of compound. For single shot assay, the final compound concentration was 5uM. […] Briefly, eGFP LdBOB axenic amastigotes were harvested, fixed and counted in a CASY cell counter (Roche-Applied Science). A final concentration of 1.5 * 10^5 cells per well were prepared in amastigote media containing 500 U/mL penicillin/streptomycin (Invitrogen) and 6uL was dispensed to each experimental well using a Multidrop Combi dispenser (Thermo Scientific). 6uL of assay media was dispensed to control columns used as reference for 100% compound response. Following incubation for 72 h at 37C, 5% CO2, 2 uL of resazurin was added to each well at a final concentration of 0.5 mM in phosphate buffered saline (PBS) with IGEPAL (Sigma-Aldrich), 0.05% (v/v).; type: functional, organism-based
[6] = system: Trypanosoma brucei brucei; test: GSK_TCAKS: pIC50 Trypanosoma brucei viability assay using luminiscence. Assay plates (1536-well) were prepared. T. brucei cultures were harvested and counted in a CASY cell counter. A parasite suspension was prepared at a final concentration of 5 * 10^4 cells/mL in complete HMI9 medium and 6uL was dispensed to all wells containing compounds using a Multidrop Combi dispenser. 6uL of HMI9 media with 0.4% DMSO were dispensed to control columns. Plates were incubated for 24 h at 37C, 5% CO2 then tempered for 10 min at room temperature. ATP content was quantified by adding 4 uL of CellTiter-Glo Reagent (Promega) according to the manufacturer's instructions. Luminescence was measured using a ViewLux.; type: functional, organism-based; conditions: Lister 427, CASY
[7] = system: Trypanosoma brucei brucei; test: GSK_TCAKS: pIC50 Trypanosoma brucei viability assay using fluorescence intensity. Assay plates (1536-well) were prepared by dispensing 25nL of compound solution per well using an Echo acoustic dispenser (Labcyte).; type: functional, organism-based; conditions: Lister 427, 2 h
Trypanosoma cruzi [8] = test: GSK_TCAKS: pIC50 Trypanosoma cruzi Imaging: Amastigotes/Cell. […] Cells were then washed once with PBS before infection. T. cruzi trypomastigotes, collected at days 5 to 8 after infection from LLC-MK2 parasite infected cultures, were allowed to swim out for 4h at 37C from a centrifuged pellet (2,500 rpm/10 min/room temperature). Trypomastigotes were then collected and counted in a CASY Cell Counter. Trypomastigotes, in supplemented DMEM, were added to H9c2 cultures in a multiplicity of infection of 1 and incubated for 18 h. Cells were washed once with PBS before incubation of the infected H9c2 monolayer with trypsin (Life-Technologies) to detach cells from the flask. Cells were counted in a CASY Cell Counter using a 150 um capillary and their density set at 5 * 10^4 cells per mL in supplemented assay DMEM. Infected H9c2 were dispensed into 384-well poly-lysine coated assay plates at 50uL per well using a Multidrop Combi dispenser. After seeding them, the plates were incubated at 37C, 5% CO2 for 72h. Cultures were then fixed and stained by addition of 50 uL of a solution containing 8% formaldehyde and 4 uM DRAQ5 DNA dye (BioStatus, UK) per well. […] Five images were collected per well for reliable statistical analysis. Automated image analysis was performed with a script developed on Acapella High Content Imaging and Analysis Software (PerkinElmer). Output: number of amastigotes per cell as infection level measurement.; type: functional, organism-based, Rattus norvegicus; conditions: H9c2, 4 h
Trypanosoma cruzi [9] = test: GSK_TCAKS: pIC50 Trypanosoma cruzi viability assay using beta-GAL activity. This assay was run at single shot at 5uM compound concentration per well. The biological reagents consisted of NIH-3T3 host cells and trypomastigotes parasitic cells; both cell types were set to a 3.3 * 10^5 cells/mL dilution in assay DMEM by means of a CASY cell counter device using a 60um capillary. 6 uL of the mixture were dispensed per well (about 1 * 10^3 host-cells and 1 * 10^3 parasites) with a Multidrop Combi dispenser. […] In all wells, the percentage of DMSO never exceeded 0.5%. Plates incubated for four days at 37C, 5% CO2. The substrate used for the assay fluorescence intensity (FLINT) readout was resorufin-beta-D-galactopiranoside (Sigma-Aldrich) at 5uM per well. It was diluted in PBS supplemented with the soft detergent Igepal (Fluka).; type: functional, organism-based, Mus musculus; conditions: Tulahuen, NIH3T3
[10] = molecular target: Sterol 14-alpha demethylase (Trypanosoma cruzi (strain CL Brener), UniProt Q7Z1V1); test: GSK_TCAKS: pIC50 CYP51 from Trypanosoma cruzi.; type: functional
Trypanosoma cruzi [11] = test: as §1, with “H2C9” for “Trypanosoma cruzi”, “H9c2 Host Cardiomyocytes.” for “Infected Cells.”, “Number” for “percentage”, “H9c2 Host Cardiomyocytes nuclei to determine drug-related cytotoxicity.” for “infected cells per well as a second infection marker.”; type: functional, organism-based, Rattus norvegicus; conditions: H9c2, 4 h
Leishmania donovani [12] = test: as §2, with “Infected” for “THP-1 Host”, “Percent of infected macrophage cells” for “THP-1 cell count”; type: functional, organism-based, Homo sapiens; conditions: THP-1

Sequence of Sterol 14-alpha demethylase (Q7Z1V1 whole entry): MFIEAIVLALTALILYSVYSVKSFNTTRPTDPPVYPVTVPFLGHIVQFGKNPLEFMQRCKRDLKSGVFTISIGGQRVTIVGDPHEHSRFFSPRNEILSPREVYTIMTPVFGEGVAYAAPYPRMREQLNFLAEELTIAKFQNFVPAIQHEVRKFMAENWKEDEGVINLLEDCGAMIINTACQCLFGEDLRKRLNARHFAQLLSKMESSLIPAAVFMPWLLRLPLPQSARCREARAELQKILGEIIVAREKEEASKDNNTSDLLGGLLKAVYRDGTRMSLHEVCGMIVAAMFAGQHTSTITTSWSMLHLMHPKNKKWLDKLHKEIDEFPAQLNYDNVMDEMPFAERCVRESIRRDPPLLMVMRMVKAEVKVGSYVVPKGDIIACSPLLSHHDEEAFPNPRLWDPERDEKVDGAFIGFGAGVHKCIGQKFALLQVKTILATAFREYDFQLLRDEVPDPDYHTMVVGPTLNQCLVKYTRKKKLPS

| SMILES | IC50 at 48 h [1] [µM] | IC50 (Trypanosoma cruzi [2]) [µM] | IC50 (Leishmania donovani [3]) [µM] | IC50 (Leishmania donovani [4]) [µM] | IC50 (Leishmania donovani [5]) [µM] | IC50 [6] [µM] | IC50 [7] [µM] | IC50 (Trypanosoma cruzi [8]) [µM] | IC50 (Trypanosoma cruzi [9]) [µM] | IC50 [10] [µM] | IC50 (Trypanosoma cruzi [11]) [µM] | IC50 (Leishmania donovani [12]) [µM] |
| --- | --- | --- | --- | --- | --- | --- | --- | --- | --- | --- | --- | --- |
| COc1cccc(C(=O)[C@H]2C[C@@H]2CN(Cc2ccccn2)Cc2ccccn2)c1 | > 100 | 1.26 | > 50.1 | 1.58 | 7.94 | 20 | 15.8 | 0.794 | 1.26 | 31.6 | 20 | 2 |
| CC(C)CC(=O)NC(c1cccs1)c1ccc2cccnc2c1O (centres undefined) | > 100 | 1.26 | 1.58 | 3.16 | 6.31 | 0.631 | 0.631 | 0.794 | 1.58 | 50.1 | 2 | 7.94 |
| Cc1nc(N2CC(C)OC(C)C2)sc1C(=O)Nc1ccc2c(c1)OCO2 (centres undefined) | > 100 | 3.98 | > 50.1 | 3.16 | 6.31 | > 39.8 | 39.8 | 2.51 | 2 | 39.8 | > 50.1 | 7.94 |
| CCCc1cc(N)nc(-c2cc(CCC)cc(N)n2)c1 | 31.6 | 0.631 | 20 | 1.58 | 20 | 7.94 | 3.16 | 0.501 | 2 | > 100 | 0.2 | 2.51 |
| O=C(Nc1ccccc1C(=O)Nc1ccccn1)c1ccco1 | > 100 | > 50.1 | > 50.1 | > 50.1 | > 50.1 | 0.501 | 0.251 | > 50.1 | > 50.1 | > 100 | > 50.1 | > 50.1 |
| CCC(=O)N1N=C(c2ccc3c(c2)CCCC3)Sc2c1ncn2C(=O)CC | > 100 | 20 | > 50.1 | 2.51 | 25.1 | 20 | 15.8 | 12.6 | 6.31 | > 100 | > 50.1 | 3.16 |
| COc1ncc(-c2ccc3ncnc(N4CCOCC4)c3c2)cc1NS(C)(=O)=O | > 100 | 6.31 | 1 | 0.631 | 3.16 | 0.501 | 0.316 | 2.51 | 0.501 | 39.8 | 1.58 | 5.01 |
| CC1CCCN(S(=O)(=O)c2ccc(C(=O)Nc3nc(-c4ccccn4)cs3)cc2)C1 (centres undefined) | 39.8 | 0.501 | 5.01 | 0.158 | 1.58 | 0.398 | 0.2 | 0.251 | 0.398 | 2.51 | 3.16 | 0.251 |
| COc1ccc2ncc(Cl)c(CCN3CC[C@H](NCc4cc5c(cn4)OCS5)[C@@H](O)C3)c2n1 | 25.1 | 0.158 | 6.31 | 0.501 | 2 | 0.631 | 0.316 | 0.1 | 0.126 | 7.94 | 10 | 1 |
| Cc1ccc2onc(Nc3ccnc(Nc4cccc(S(C)(=O)=O)c4)n3)c2c1 | 50.1 | 0.631 | 20 | 1 | 5.01 | 7.94 | 6.31 | 0.398 | 3.98 | 39.8 | 5.01 | 2 |
| CCOc1cc(NCCCN2CCN(C)CC2)c2ncccc2c1 | 31.6 | 1.26 | 6.31 | 0.794 | 39.8 | 20 | 12.6 | 1 | 1.78 | > 100 | 31.6 | 1.26 |
| Cc1ccc(S(=O)(=O)Nc2ccc(CN3CCN(C(=O)c4cccc(C)c4)CC3)cc2)cc1 | > 100 | 0.316 | 39.8 | 31.6 | 25.1 | 0.501 | 0.251 | 0.316 | 0.501 | 79.4 | > 50.1 | 39.8 |
| Cc1cc(Nc2cc(C3CC3)[nH]n2)nc(N2CCCC2)n1 | 31.6 | 0.1 | 0.126 | 0.0501 | 0.794 | 0.0631 | 0.0501 | 0.0794 | 0.0794 | > 100 | 0.251 | 0.158 |
| Cc1ccc(Nc2nc(C3CCCN3Cc3cc[nH]n3)cs2)nc1 (centres undefined) | 31.6 | 2 | 25.1 | 1.26 | 12.6 | 3.98 | 0.794 | 2 | 0.794 | 6.31 | 10 | 1.58 |
| CN(C)S(=O)(=O)c1cccc(CSc2nnc(-c3ccc4c(c3)OCO4)o2)c1 | > 100 | 0.1 | > 50.1 | 0.631 | 1 | > 39.8 | 31.6 | 0.0501 | 0.501 | 12.6 | > 50.1 | 2 |
| CC(C)C[C@H](NC(=O)c1csc(-c2cccs2)n1)C(=O)NC1(C#N)CC1 | > 100 | > 50.1 | > 50.1 | > 50.1 | 5.01 | 0.1 | 0.158 | 20 | 25.1 | > 100 | > 50.1 | > 50.1 |
| Cc1cc(Nc2ccc(C#N)c(Cl)c2C)[nH]n1 | > 100 | > 50.1 | 20 | > 50.1 | 50.1 | 0.251 | 0.00794 | 20 | 25.1 | 39.8 | > 50.1 | > 50.1 |
